What follows are molecules tested against T1, human plasma protein factor Xa (Homo sapiens, UniProt P00742) (assay: Factor Xa IC50 determination: cleavage of paranitroanilide substrate S-2765 in 96-well plates). Details: fXa 1 nM, S-2765 100 μM, Tris buffered saline pH 7.4, room temperature.
T1 construct: measure proteolytic activity of the enzyme (factor Xa); purchased Haematologic Technologies (Essex Junction, Vt.); host or cells: human plasma
Type: biochemical
Excerpt: This example illustrates methods for evaluating the compounds of the invention, along with results obtained for such assays. The in vitro and in vivo Factor Xa isoform activities of the inventive compounds can be determined by various procedures known in the art, such as a test for their ability to inhibit the activity of the Factor Xa isoform. […] The IC50 value is the concentration (in nM) of the compound required to provide 50% inhibition of Factor Xa isoform.
An in vitro assay for detecting and measuring inhibition activity against Factor Xa is as follows:
The substrate S-2765 (Z-D-Arg-Gly-Arg-pNA.HCl) was obtained from Diapharma (West Chester, Ohio).
The human plasma protein factor Xa was purchased from Haematologic Technologies (Essex Junction, Vt.).
All assays, which are performed in 96-well microtiter plates, measure proteolytic activity of the enzyme (factor Xa) by following cleavage of paranitroanilide substrate. The assay buffer used for proteolytic assays was Tris buffered saline (20 mM Tris, 150 mM NaCl, 5 mM CaCl2, 0.1% Bovine serum albumin (BSA), 5% Dimethly Sulfoxide (DMSO) pH 7.4). In a 96-well microtiter plate, inhibitor was serially diluted to give a range of concentrations from 0.01 nM to 10 μM (final). Duplicate sets of wells were assayed and control wells without inhibitor were included. Enzyme was added to each well, (fXa concentration=1 nM), the plate was shaken for 5 seconds and then incubated for 5 minutes at room temperature. S2765 was added (100 μM final) and the plate was shaken for 5 seconds (final liquid volume in each well was 200 μl). The degree of substrate hydrolysis was measured at 405 nm on a Thermomax plate reader (Molecular Devices, Sunnyvale, Calif.) for 2 minutes. The initial velocities (mOD/min), for each range of inhibitor concentrations, were fitted to a four parameter equation using Softmax data analysis software. The parameter C, derived from the resulting curve-fit, corresponded to the concentration for half maximal inhibition (IC50).

T1 sequence (P00742 235-488 limits assumed): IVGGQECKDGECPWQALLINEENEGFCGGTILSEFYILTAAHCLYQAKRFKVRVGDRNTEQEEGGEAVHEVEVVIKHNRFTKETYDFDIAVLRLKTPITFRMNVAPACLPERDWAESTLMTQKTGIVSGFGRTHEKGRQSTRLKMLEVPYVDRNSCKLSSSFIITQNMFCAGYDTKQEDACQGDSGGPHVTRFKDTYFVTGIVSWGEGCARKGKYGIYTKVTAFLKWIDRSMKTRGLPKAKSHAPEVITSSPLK
T1 sequence (P00742 41-179 partner limits assumed): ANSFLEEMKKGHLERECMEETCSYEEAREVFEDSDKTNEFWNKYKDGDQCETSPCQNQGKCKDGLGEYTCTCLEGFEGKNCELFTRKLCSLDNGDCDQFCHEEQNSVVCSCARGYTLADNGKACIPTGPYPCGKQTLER

SMILES | IC50 [nM]
CC(NC(=O)c1ccc(Cl)s1)c1cc(-c2ccc(C(=N)N(C)C)cc2)no1 (stereo in doubt) [Example 53, (R)-5-Chloro-thiophene-2-carboxylic acid (1-{3-[4-(N,N-dimethyl-carbamimidoyl)-phenyl]-isoxazol-5-yl}-ethyl)-amide] | ≥ 500
O=C(NCC1CC(c2ccc(Br)cc2)=NO1)c1ccc(Cl)s1 (centres unmarked) [Example 1, 5-Chloro-thiophene-2-carboxylic acid [3-(4-bromo-phenyl)-4,5-dihydro-isoxazol-5-ylmethyl]-amide] | ≥ 500
O=C(NCc1cc(-c2cccc(Br)c2)no1)c1ccc(Cl)s1 [Example 4, 5-Chloro-thiophene-2-carboxylic acid [3-(3-bromo-phenyl)-isoxazol-5-ylmethyl]-amide] | ≥ 500
O=C(NCC1CC(c2ccc(Oc3ccccc3)cc2)=NO1)c1ccc(Cl)s1 (centres unmarked) [Example 5, 5-Chloro-thiophene-2-carboxylic acid [3-(4-phenoxy-phenyl)-4,5-dihydro-isoxazol-5-ylmethyl]-amide] | ≥ 500
N=C(c1ccc(C2=NOC(CNC(=O)c3ccc(Cl)s3)C2)cc1)N1CCCCC1 (centres unmarked) [Example 11, 5-Chloro-thiophene-2-carboxylic acid {3-[4-(imino-piperidin-1-yl-methyl)-phenyl]-4,5-dihydro-isoxazol-5-ylmethyl}-amide] | 100 to 500
CCOC(=O)C1CCN(C(=N)c2ccc(C3=NOC(CNC(=O)c4ccc(Cl)s4)C3)cc2)CC1 (centres unmarked) [Example 12, 1-{[4-(5-{[(5-Chloro-thiophene-2-carbonyl)-amino]-methyl}-4,5-dihydro-isoxazol-3-yl)-phenyl]-imino-methyl}-piperidine-4-carboxylic acid ethyl ester] | 100 to 500
C#CCN(C)C(=N)c1ccc(C2=NOC(CNC(=O)c3ccc(Cl)s3)C2)cc1 (centres unmarked) [Example 13, 5-Chloro-thiophene-2-carboxylic acid {3-[4-(N-methyl-N-prop-2-ynyl-carbamimidoyl)-phenyl]-4,5-dihydro-isoxazol-5-ylmethyl}-amide] | 100 to 500
COCCN(C)C(=N)c1ccc(C2=NOC(CNC(=O)c3ccc(Cl)s3)C2)cc1 (centres unmarked) [Example 14, 5-Chloro-thiophene-2-carboxylic acid (3-{4-[N-(2-methoxy-ethyl)-N-methyl-carbamimidoyl]-phenyl}-4,5-dihydro-isoxazol-5-ylmethyl)-amide] | 100 to 500
CN(Cc1ccco1)C(=N)c1ccc(C2=NOC(CNC(=O)c3ccc(Cl)s3)C2)cc1 (centres unmarked) [Example 15, 5-Chloro-thiophene-2-carboxylic acid {3-[4-(N-furan-2-ylmethyl-N-methyl-carbamimidoyl)-phenyl]-4,5-dihydro-isoxazol-5-ylmethyl}-amide] | 100 to 500
CCOC(=O)C1CCN(C(=N)c2ccc(-c3cc(CNC(=O)c4ccc(Cl)s4)on3)cc2)CC1 [Example 25, 1-{[4-(5-{[(5-Chloro-thiophene-2-carbonyl)-amino]-methyl}-isoxazol-3-yl)-phenyl]-imino-methyl}-piperidine-4-carboxylic acid ethyl ester] | ≤ 100
N=C(c1ccc(-c2cc(CNC(=O)c3ccc(Cl)s3)on2)cc1)N1CCC1 [Example 26, 5-Chloro-thiophene-2-carboxylic acid {3-[4-(azetidin-1-yl-imino-methyl)-phenyl]-isoxazol-5-ylmethyl}-amide] | ≤ 100
O=C(NCc1cc(-c2ccc(C(N3CCC3)=[N+]3CCC3)cc2)no1)c1ccc(Cl)s1 [Example 27, 5-Chloro-thiophene-2-carboxylic acid {3-[4-(azetidin-1-yl-azetidin-1-ylidene-methyl)-phenyl]-isoxazol-5-ylmethyl}-amide] | ≤ 100
CCN(C)C(=N)c1ccc(-c2cc(CNC(=O)c3ccc(Cl)s3)on2)cc1 [Example 28, 5-Chloro-thiophene-2-carboxylic acid {3-[4-(N-ethyl-N-methyl-carbamimidoyl)-phenyl]-isoxazol-5-ylmethyl}-amide] | ≤ 100
CCCN(C)C(=N)c1ccc(-c2cc(CNC(=O)c3ccc(Cl)s3)on2)cc1 [Example 29, 5-Chloro-thiophene-2-carboxylic acid {3-[4-(N-methyl-N-propyl-carbamimidoyl)-phenyl]-isoxazol-5-ylmethyl}-amide] | ≤ 100
CN(C)CCN(C)C(=N)c1ccc(-c2cc(CNC(=O)c3ccc(Cl)s3)on2)cc1 [Example 30, 5-Chloro-thiophene-2-carboxylic acid (3-{4-[N-(2-dimethylamino-ethyl)-N-methyl-carbamimidoyl]-phenyl}-isoxazol-5-ylmethyl)-amide] | ≤ 100
CN(Cc1ccco1)C(=N)c1ccc(-c2cc(CNC(=O)c3ccc(Cl)s3)on2)cc1 [Example 31, 5-Chloro-thiophene-2-carboxylic acid {3-[4-(N-furan-2-ylmethyl-N-methyl-carbamimidoyl)-phenyl]-isoxazol-5-ylmethyl}-amide] | ≤ 100
COCCN(C)C(=N)c1ccc(-c2cc(CNC(=O)c3ccc(Cl)s3)on2)cc1 [Example 32, 5-Chloro-thiophene-2-carboxylic acid (3-{4-[N-(2-methoxy-ethyl)-N-methyl-carbamimidoyl]-phenyl}-isoxazol-5-ylmethyl)-amide] | ≤ 100

More lines, now with the values ahead:

IC50 [nM] | SMILES
≤ 100 | N#Cc1ccc(C2=NOC(CNC(=O)c3ccc(Cl)s3)C2)cc1 (centres unmarked) [Example 7, 5-Chloro-thiophene-2-carboxylic acid [3-(4-cyano-phenyl)-4,5-dihydro-isoxazol-5-ylmethyl]-amide]
≤ 100 | CN(C)C(=N)c1ccc(C2=NOC(CNC(=O)c3ccc(Cl)s3)C2)cc1 (centres unmarked) [Example 8, 5-Chloro-thiophene-2-carboxylic acid {3-[4-(N,N-dimethyl-carbamimidoyl)-phenyl]-4,5-dihydro-isoxazol-5-ylmethyl}-amide]
≤ 100 | CN1CCN=C1c1ccc(C2=NOC(CNC(=O)c3ccc(Cl)s3)C2)cc1 (centres unmarked) [Example 9, 5-Chloro-thiophene-2-carboxylic acid {3-[4-(1-methyl-4,5-dihydro-1H-imidazol-2-yl)-phenyl]-4,5-dihydro-isoxazol-5-ylmethyl}-amide]
≤ 100 | N=C(c1ccc(C2=NOC(CNC(=O)c3ccc(Cl)s3)C2)cc1)N1CCCC1 (centres unmarked) [Example 10, 5-Chloro-thiophene-2-carboxylic acid {3-[4-(imino-pyrrolidin-1-yl-methyl)-phenyl]-4,5-dihydro-isoxazol-5-ylmethyl}-amide]
≤ 100 | CN(C)CCN(C)C(=N)c1ccc(C2=NOC(CNC(=O)c3ccc(Cl)s3)C2)cc1 (centres unmarked) [Example 16, 5-Chloro-thiophene-2-carboxylic acid (3-{4-[N-(2-dimethylamino-ethyl)-N-methyl-carbamimidoyl]-phenyl}-4,5-dihydro-isoxazol-5-ylmethyl)-amide]
≤ 100 | CCCN(C)C(=N)c1ccc(C2=NOC(CNC(=O)c3ccc(Cl)s3)C2)cc1 (centres unmarked) [Example 17, 5-Chloro-thiophene-2-carboxylic acid {3-[4-(N-methyl-N-propyl-carbamimidoyl)-phenyl]-4,5-dihydro-isoxazol-5-ylmethyl}-amide]
≤ 100 | CCN(C)C(=N)c1ccc(C2=NOC(CNC(=O)c3ccc(Cl)s3)C2)cc1 (centres unmarked) [Example 18, 5-Chloro-thiophene-2-carboxylic acid {3-[4-(N-ethyl-N-methyl-carbamimidoyl)-phenyl]-4,5-dihydro-isoxazol-5-ylmethyl}-amide]
≤ 100 | N#Cc1ccc(-c2cc(CNC(=O)c3ccc(Cl)s3)on2)cc1 [Example 20, 5-Chloro-thiophene-2-carboxylic acid [3-(4-cyano-phenyl)-isoxazol-5-ylmethyl]-amide]
≤ 100 | CN(C)C(=N)c1ccc(-c2cc(CNC(=O)c3ccc(Cl)s3)on2)cc1 [Example 21, 5-Chloro-thiophene-2-carboxylic acid {3-[4-(N,N-dimethyl-carbamimidoyl)-phenyl]-isoxazol-5-ylmethyl}-amide]
≤ 100 | CN1CCN=C1c1ccc(-c2cc(CNC(=O)c3ccc(Cl)s3)on2)cc1 [Example 22, 5-Chloro-thiophene-2-carboxylic acid {3-[4-(1-methyl-4,5-dihydro-1H-imidazol-2-yl)-phenyl]-isoxazol-5-ylmethyl}-amide]
≤ 100 | N=C(c1ccc(-c2cc(CNC(=O)c3ccc(Cl)s3)on2)cc1)N1CCCC1 [Example 23, 5-Chloro-thiophene-2-carboxylic acid {3-[4-(imino-pyrrolidin-1-yl-methyl)-phenyl]-isoxazol-5-ylmethyl}-amide]
≤ 100 | N=C(c1ccc(-c2cc(CNC(=O)c3ccc(Cl)s3)on2)cc1)N1CCCCC1 [Example 24, 5-Chloro-thiophene-2-carboxylic acid {3-[4-(imino-piperidin-1-yl-methyl)-phenyl]-isoxazol-5-ylmethyl}-amide]

Reference: patent US8377974B2 (Millennium Pharmaceuticals, Inc., priority 2004, dated 2013)
